PubChem BioAssay (NCI)
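Growth conditions: 96-well plates. Treatment: test compound, 48 hours, 5 concentrations. Analysis: linear interpolation between bracketing concentrations; unreached endpoints set to highest concentration. GI50 marks 50% less growth. At the TGI there is no net growth.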

Key:
Assay in all cases: DTP human tumour cell line panel, 48 h
SK-MEL-5 melanoma = tested on: SK-MEL-5 melanoma
HOP-62 NSCLC = tested on: HOP-62 NSCLC
OVCAR-8 ovarian = tested on: OVCAR-8 ovarian
M14 melanoma = tested on: M14 melanoma
786-0 renal = tested on: 786-0 renal
CCRF-CEM leukemia = tested on: CCRF-CEM leukemia
SK-MEL-28 melanoma = tested on: SK-MEL-28 melanoma
OVCAR-3 ovarian = tested on: OVCAR-3 ovarian
NCI-H460 lung = tested on: NCI-H460 lung
OVCAR-5 ovarian = tested on: OVCAR-5 ovarian

SMILES | GI50 (SK-MEL-5 melanoma) | TGI (SK-MEL-5 melanoma) | GI50 (HOP-62 NSCLC) | TGI (HOP-62 NSCLC) | GI50 (OVCAR-8 ovarian) | TGI (OVCAR-8 ovarian) | GI50 (M14 melanoma) | TGI (M14 melanoma) | GI50 (786-0 renal) | TGI (786-0 renal) | GI50 (CCRF-CEM leukemia) | TGI (CCRF-CEM leukemia) | GI50 (SK-MEL-28 melanoma) | TGI (SK-MEL-28 melanoma) | GI50 (OVCAR-3 ovarian) | TGI (OVCAR-3 ovarian) | GI50 (NCI-H460 lung) | TGI (NCI-H460 lung) | GI50 (OVCAR-5 ovarian) | TGI (OVCAR-5 ovarian)
CCN1C(=O)N(CC)C2C1NN=c1s/c(=C\c3ccc(F)cc3)c(=O)n12 (centres undefined) | 0.0865 µM | 5.7 µM | 0.287 µM | > 100 µM | 0.43 µM | > 100 µM | 0.136 µM | > 100 µM | 0.702 µM | > 100 µM | 0.265 µM | > 100 µM | 0.599 µM | > 100 µM | 0.0924 µM | 0.664 µM | 0.218 µM | > 100 µM | 0.473 µM | > 100 µM
N#CC1(C#N)C(c2ccccc2)C=CC12OCCCO2 (centres undefined) |  | > 100 µM |  | > 100 µM |  | 43 µM |  | > 100 µM |  | > 100 µM |  | 88.7 µM |  | > 100 µM |  | > 100 µM |  | > 100 µM |  | > 100 µM
CC1=C(CC2C(=O)N(c3ccccc3)S(=O)(=O)NC2C)C(=O)N(c2ccccc2)S(=O)(=O)N1C (centres undefined) |  | > 100 µM |  | > 100 µM |  | > 100 µM |  | > 100 µM |  | > 100 µM |  | > 100 µM |  | > 100 µM |  | > 100 µM |  | > 100 µM |  | > 100 µM
C[C@@H]1Cc2cc(O)ccc2[C@H]2CC[C@]3(C)/C(=C/COCCN(C)C)CC[C@H]3[C@H]12 (tested in a mixture with another compound) | 0.205 µM | 0.453 µM | 0.285 µM | 0.739 µM | 0.18 µM | 0.364 µM | 0.381 µM | 1.44 µM | 0.198 µM | 0.618 µM | 0.159 µM | 0.416 µM | 0.456 µM | 1.46 µM | 0.18 µM | 0.344 µM | 0.0704 µM | 0.208 µM | 0.251 µM | 0.724 µM
C=CCc1cc(Nc2c3ccc(Cl)cc3nc3ccc(OC)cc23)cc(CN(CC)CC)c1O | 1.24 µM | 2.49 µM | 2.92 µM | 13.5 µM | 1.44 µM |  | 1.9 µM | 5.3 µM | 2.31 µM | 10.1 µM | 0.8 µM | 4.26 µM | 3.37 µM | 18.1 µM | 1.88 µM | 11.5 µM | 0.525 µM | 2.69 µM | 6.75 µM | 26 µM
CCOC(=O)/C(I)=C/c1cc(OC)c(OC)c(OC)c1 |  | 24.5 µM |  | 96.1 µM |  | 38.8 µM |  | 14.7 µM |  | 33 µM |  | 8.6 µM |  | 7.88 µM |  | 14.1 µM |  | > 100 µM |  | 20 µM
NNc1nnc(-c2nnc(NN)o2)o1 |  | > 10 µM |  | > 10 µM |  | > 10 µM |  | > 10 µM |  | > 10 µM |  | > 10 µM |  | > 10 µM |  | > 10 µM |  | > 10 µM |  | > 10 µM
CC(=O)O[C@@H]1C[C@@]2(C)[C@@H]3CC=C4[C@@H](C[C@H](O)C(=O)C4(C)C)[C@]3(C)C(=O)C[C@]2(C)[C@H]1[C@@](C)(O)C(=O)/C=C/C(C)(C)OC(C)=O |  | 11 µM |  | 5.29 µM |  | > 49.1 µM |  | 14.9 µM |  | > 70.4 µM |  | > 69.2 µM |  | 29.4 µM |  | > 100 µM |  | 16.3 µM |  | > 86 µM
FC(F)(F)c1cccc(-c2nn3ncccc3c2-c2ccnc(Nc3ccc4c(c3)OCCO4)n2)c1 | 7.87 µM | > 25 µM | > 25 µM | > 25 µM | 10.6 µM | > 25 µM | 17.6 µM | > 25 µM | 8.35 µM | > 25 µM | 0.511 µM | > 25 µM | > 25 µM | > 25 µM | 13.7 µM | > 25 µM | 11.1 µM | > 25 µM | > 25 µM | > 25 µM
COc1cc(C2(C)SCCCS2)cc(OC)c1OC |  | > 100 µM |  | > 100 µM |  | > 100 µM |  | > 100 µM |  | > 100 µM |  | > 100 µM |  | > 100 µM |  | > 100 µM |  | > 100 µM |  | > 100 µM
CCOC(=O)C1Nc2ccccc2[C@H]2OCC[C@@H]12 (some centres undefined) |  | > 100 µM |  | > 100 µM |  | > 100 µM |  | > 100 µM |  | > 100 µM |  | > 100 µM |  | > 100 µM |  | > 100 µM |  | > 100 µM |  | > 100 µM
O=C(NCCNCCO)c1cccc2ccc(-c3ccccc3)nc12 |  | 12.5 µM |  | 22.8 µM |  | 19.5 µM |  | 17.8 µM |  | 19.6 µM |  | 27.1 µM |  | 22.1 µM |  | 25.1 µM |  | 11.6 µM |  | 18.2 µM
